From patent US20090062251A1, “Novel Compounds 002” (ASTRAZENECA AB, priority 2007, published 2009) come the findings set out here.

The target of the test is T1, Human CB1 receptor (hCB1) (Homo sapiens, UniProt P21554).
T1 construct: purchased Receptor Biology
As to the kind of experiment: hCB1 GTPγS binding. It counts as biochemical. Conditions: for EC50: hCB1 membranes, GTPγ35S, 10-point dose-response; for Emax / hCB1 EMax: maximal stimulated binding determined with 10 μM Win 55,212-2. The procedure: hCB1 and hCB2 GTPγS Binding
Human CB1 receptor from Receptor Biology (hCB1) or human CB2 receptor membranes (BioSignal) are thawed at 37° C., passed 3 times through a 25-gauge blunt-end needle and diluted in the GTPγS binding buffer (50 mM Hepes, 20 mM NaOH, 100 mM NaCl, 1 mM EDTA, 5 mM MgCl2, pH 7.4, 0.1% BSA). […] The basal and maximal stimulated binding is determined in absence and presence of 1 μM (hCB2) or 10 μM (hCB1) Win 55, 212-2 respectively. The membranes are pre-incubated for 5 minutes with 56.25 μM (hCB2) or 112.5 μM (hCB1) GDP prior to distribution in plates (15 μM (hCB2) or 30 μM (hCB1) GDP final). The plates are vortexed and incubated for 60 minutes at room temperature, filtered on Unifilters GF/B (presoaked in water) with the Tomtec or Packard harvester using 3 ml of wash buffer (50 mM Tris, 5 mM MgCl2, 50 mM NaCl, pH 7.0). The filters are dried for 1 hour at 55° C. The radioactivity (cpm) is counted in a TopCount (Packard) after adding 65 μl/well of MS-20 scintillation liquid. Antagonist reversal studies are done in the same way except that (a) an agonist dose-response curve is done in the presence of a constant concentration of antagonist, or (b) an antagonist dose-response curve is done in the presence of a constant concentration of agonist.

Some results are limits rather than exact numbers.

T1 sequence (P21554 whole entry): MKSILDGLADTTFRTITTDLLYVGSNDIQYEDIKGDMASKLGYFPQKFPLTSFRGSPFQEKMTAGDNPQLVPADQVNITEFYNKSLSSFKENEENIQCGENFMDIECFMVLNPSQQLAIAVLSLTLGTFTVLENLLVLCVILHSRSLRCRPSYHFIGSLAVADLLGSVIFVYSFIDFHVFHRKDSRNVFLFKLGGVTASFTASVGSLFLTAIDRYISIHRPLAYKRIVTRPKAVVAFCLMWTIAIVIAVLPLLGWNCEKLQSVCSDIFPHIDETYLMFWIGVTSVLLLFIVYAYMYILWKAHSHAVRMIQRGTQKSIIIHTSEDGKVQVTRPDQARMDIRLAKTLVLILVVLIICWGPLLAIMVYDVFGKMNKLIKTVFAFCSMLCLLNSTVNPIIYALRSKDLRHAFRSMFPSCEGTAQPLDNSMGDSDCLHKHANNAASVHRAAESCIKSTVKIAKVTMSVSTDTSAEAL

As for `CCNC(=O)CN(CC)C(=O)c1ccc2c(c1)c1c(n2CC(=O)N(CC)CC)CCC(C2CCOCC2)C1` (stereo not shown) [9-(diethylcarbamoylmethyl)-N-ethyl-N-(ethylcarbamoylmethyl)-6-(oxan-4-yl)-5,6,7,8-tetrahydrocarbazole-3-carboxamide], the EC50 (commonly the concentration at which the effect is half-maximal) was greater than 10000 nM and the Emax (in general, the maximal effect, on the per cent scale that the assay sets) was greater than 87%.

For the molecule `CCS(=O)(=O)n1c2c(c3cc(C(=O)N4CCC[C@@H]4C(=O)NCCF)ccc31)CC(C1CCOCC1)CC2` (stereo partly drawn) [(2R)-1-[9-ethylsulfonyl-6-(oxan-4-yl)5,6,7,8-tetrahydrocarbazole-3-carbonyl]-N-(2-fluoroethyl)pyrrolidine-2-carboxamide], a half-maximal response (EC50) required 1700 nM and the Emax is greater than 107%.

Turning to `Cn1c2c(c3cc(C(=O)N4CCC[C@H](C(=O)NC5CC5)C4)ccc31)CC(C1CCOCC1)CC2` (stereo partly drawn) [(3S)—N-cyclopropyl-1-[9-methyl-6-(oxan-4-yl)5,6,7,8-tetrahydrocarbazole-3-carbonyl]piperidine-3-carboxamide], the Emax came to 118%.

The molecule `Cn1c2c(c3cc(C(=O)N4CC[C@H](C(=O)NC5CC5)C4)ccc31)CC(C1CCOCC1)CC2` (stereo partly drawn) [(3S)—N-cyclopropyl-1-[9-methyl-6-(oxan-4-yl)5,6,7,8-tetrahydrocarbazole-3-carbonyl]pyrrolidine-3-carboxamide] gave an Emax of 134%.

On to `CN(CCCC(=O)Nn1cccc1)C(=O)c1ccc2c(c1)c1c(n2C)CC[C@@H](C2CCOCC2)C1` [(R)—N-(4-(1H-Pyrrol-1-ylamino)-4-oxobutyl)-N,9-dimethyl-3-(tetrahydro-2H-pyran-4-yl)-2,3,4,9-tetrahydro-1H-carbazole-6-carboxamide], for which the midpoint of the response, the EC50, lay at 1050 nM and the Emax came to 89%.

Turning to `CN(C)NC(=O)CCCN(C)C(=O)c1ccc2c(c1)c1c(n2C)CC[C@@H](C2CCOCC2)C1` [(R)—N-(4-(2,2-Dimethylhydrazinyl)-4-oxobutyl)-N,9-dimethyl-3-(tetrahydro-2H-pyran-4-yl)-2,3,4,9-tetrahydro-1H-carbazole-6-carboxamide], the EC50 is 917 nM and the Emax turned out to be 96%.

`COCCNC(=O)CCCN(C)C(=O)c1ccc2c(c1)c1c(n2C)CC[C@@H](C2CCOCC2)C1` [(R)—N-(4-(2-Methoxyethylamino)-4-oxobutyl)-N,9-dimethyl-3-(tetrahydro-2H-pyran-4-yl)-2,3,4,9-tetrahydro-1H-carbazole-6-carboxamide] yielded a concentration for a half-maximal effect (EC50) of 1210 nM and an Emax of 93%.

For `CN(CCCC(=O)NCC#N)C(=O)c1ccc2c(c1)c1c(n2C)CC[C@@H](C2CCOCC2)C1` [(R)—N-(4-(Cyanomethylamino)-4-oxobutyl)-N,9-dimethyl-3-(tetrahydro-2H-pyran-4-yl)-2,3,4,9-tetrahydro-1H-carbazole-6-carboxamide], the EC50 is 71 nM and the Emax came out at 110%.

For `CONC(=O)CCCN(C)C(=O)c1ccc2c(c1)c1c(n2C)CC[C@@H](C2CCOCC2)C1` [(R)—N-(4-(Methoxyamino)-4-oxobutyl)-N,9-dimethyl-3-(tetrahydro-2H-pyran-4-yl)-2,3,4,9-tetrahydro-1H-carbazole-6-carboxamide], the response was half-maximal at 291 nM (EC50) and the Emax came out at 104%.

Molecule `CC(C)NC(=O)CC[C@@H](CO)N(C)C(=O)c1ccc2c(c1)c1c(n2C)CC[C@@H](C2CCOCC2)C1` [(R)—N-((S)-1-Hydroxy-5-(isopropylamino)-5-oxopentan-2-yl)-N,9-dimethyl-3-(tetrahydro-2H-pyran-4-yl)-2,3,4,9-tetrahydro-1H-carbazole-6-carboxamide] returned a concentration giving a half-maximal response (EC50) of 133 nM and an Emax of 129%.

With `CNC(=O)CC[C@@H](CO)N(C)C(=O)c1ccc2c(c1)c1c(n2C)CC[C@@H](C2CCOCC2)C1` [(R)—N-((S)-1-Hydroxy-5-(methylamino)-5-oxopentan-2-yl)-N,9-dimethyl-3-(tetrahydro-2H-pyran-4-yl)-2,3,4,9-tetrahydro-1H-carbazole-6-carboxamide], the EC50 was 101 nM and the Emax came to 124%.

On to `CN(C(=O)c1ccc2c(c1)c1c(n2C)CC[C@@H](C2CCOCC2)C1)[C@H](CO)CCC(=O)NC1COC1` [(R)—N-((S)-1-Hydroxy-5-(oxetan-3-ylamino)-5-oxopentan-2-yl)-N,9-dimethyl-3-(tetrahydro-2H-pyran-4-yl)-2,3,4,9-tetrahydro-1H-carbazole-6-carboxamide], for which a half-maximal response (EC50) required 201 nM and the maximum response (Emax) stood at 119%.

The molecule `CN(C(=O)c1ccc2c(c1)c1c(n2C)CC[C@@H](C2CCOCC2)C1)[C@H](CO)CCC(=O)NCC(F)F` [(R)—N-((S)-5-(2,2-Difluoroethylamino)-1-hydroxy-5-oxopentan-2-yl)-N,9-dimethyl-3-(tetrahydro-2H-pyran-4-yl)-2,3,4,9-tetrahydro-1H-carbazole-6-carboxamide] yielded an EC50 of 107 nM and an Emax of 120%.

Take `CCN(CCCC(=O)NCCO)C(=O)c1ccc2c(c1)c1c(n2C)CC[C@@H](C2CCOCC2)C1` [(R)—N-Ethyl-N-(4-(2-hydroxyethylamino)-4-oxobutyl)-9-methyl-3-(tetrahydro-2H-pyran-4-yl)-2,3,4,9-tetrahydro-1H-carbazole-6-carboxamide]: the EC50 was determined as 31 nM and the Emax is 113%.

In the case of `CNC(=O)CCCN(C)C(=O)c1ccc2c(c1)c1c(n2C)CCC(C2CCOCC2)C1` (stereo not shown) [N,9-dimethyl-N-[3-(methylcarbamoyl)propyl]-6-(oxan-4-yl)-5,6,7,8-tetrahydrocarbazole-3-carboxamide], the Emax turned out to be 102%.

Turning to `CN(CC(=O)NC1CC1)C(=O)c1ccc2c(c1)c1c(n2C)CCC(C2CCOCC2)C1` (stereo not shown) [N-(cyclopropylcarbamoylmethyl)-N,9-dimethyl-6-(oxan-4-yl)-5,6,7,8-tetrahydrocarbazole-3-carboxamide], the Emax turned out to be 121% and the “hCB1 EMax” value was determined as 121%.

As for `CCN(CC(=O)NC1CC1)C(=O)c1ccc2c(c1)c1c(n2C)CCC(C2CCOCC2)C1` (stereo not shown) [N-(cyclopropylcarbamoylmethyl)-N-ethyl-9-methyl-6-(oxan-4-yl)-5,6,7,8-tetrahydrocarbazole-3-carboxamide], the Emax turned out to be 124%.

Take `CN(CCCC(=O)NCCF)C(=O)c1ccc2c(c1)c1c(n2C)CCC(C2CCOCC2)C1` (stereo not shown) [N-[3-(2-fluoroethylcarbamoyl)propyl]-N,9-dimethyl-6-(oxan-4-yl)-5,6,7,8-tetrahydrocarbazole-3-carboxamide]: the Emax was determined as 121%.

With `Cn1c2c(c3cc(C(=O)N4CC[C@H](NC(=O)C5CC5)C4)ccc31)CC(C1CCOCC1)CC2` (stereo partly drawn) [N-[(3S)-1-[9-methyl-6-(oxan-4-yl)5,6,7,8-tetrahydrocarbazole-3-carbonyl]pyrrolidin-3-yl]cyclopropanecarboxamide], a half-maximal response (EC50) required 1150 nM and the maximum response (Emax) came out at 116%.

Consider `CCN(CC(=O)NCCO)C(=O)c1ccc2c(c1)c1c(n2S(=O)(=O)CC)CCC(C2CCOCC2)C1` (stereo not shown) [N-ethyl-9-ethylsulfonyl-N-(2-hydroxyethylcarbamoylmethyl)-6-(oxan-4-yl)-5,6,7,8-tetrahydrocarbazole-3-carboxamide], for which the Emax amounted to 111% and the “hCB1 EMax” value was 111%.

In the case of `CCN(CC(=O)NC1CCOCC1)C(=O)c1ccc2c(c1)c1c(n2C)CCC(C2CCOCC2)C1` (stereo not shown) [N-ethyl-9-methyl-6-(oxan-4-yl)-N-(oxan-4-ylcarbamoylmethyl)-5,6,7,8-tetrahydrocarbazole-3-carboxamide], the EC50 is greater than 1110 nM and the Emax is greater than 88%.

Molecule `CCN(CC(=O)NCCF)C(=O)c1ccc2c(c1)c1c(n2C)CCC(C2CCOCC2)C1` (stereo not shown) [N-ethyl-N-(2-fluoroethylcarbamoylmethyl)-9-methyl-6-(oxan-4-yl)-5,6,7,8-tetrahydrocarbazole-3-carboxamide] had a maximal effect (Emax) of 108%.

Take `CCNC(=O)CN(CC)C(=O)c1ccc2c(c1)c1c(n2CC(C)(C)O)CCC(C2CCOCC2)C1` (stereo not shown) [N-ethyl-N-(ethylcarbamoylmethyl)-9-(2-hydroxy-2-methyl-propyl)-6-(oxan-4-yl)-5,6,7,8-tetrahydrocarbazole-3-carboxamide]: the EC50 was greater than 30000 nM and the Emax was greater than 34%.

As to `CCNC(=O)CN(CC)C(=O)c1ccc2c(c1)c1c(n2CCO)CCC(C2CCOCC2)C1` (stereo not shown) [N-ethyl-N-(ethylcarbamoylmethyl)-9-(2-hydroxyethyl)-6-(oxan-4-yl)-5,6,7,8-tetrahydrocarbazole-3-carboxamide], the EC50 was greater than 3330 nM and the Emax was greater than 83%.

Turning to `CCNC(=O)CN(CC)C(=O)c1ccc2c(c1)c1c(n2CC(=O)NC)CCC(C2CCOCC2)C1` (stereo not shown) [N-ethyl-N-(ethylcarbamoylmethyl)-9-(methylcarbamoylmethyl)-6-(oxan-4-yl)-5,6,7,8-tetrahydrocarbazole-3-carboxamide], the EC50 is greater than 30000 nM and the Emax is greater than 9%.

On to `CCS(=O)(=O)n1c2c(c3cc(C(=O)N4CCC[C@@H](O)C4)ccc31)CC(C1CCOCC1)CC2` (stereo partly drawn) [[9-ethylsulfonyl-6-(oxan-4-yl)-5,6,7,8-tetrahydrocarbazol-3-yl]-[(3R)-3-hydroxy-1-piperidyl]methanone], for which the response was half-maximal at 1760 nM (EC50) and the Emax was determined as 104%.
